Like-named read-outs stand apart in the source and are kept apart here.
How the values were obtained:
[1] = system: 3T3 mouse fibroblasts
[2] = Solubility in PBS of hard block degradation products; format: physicochemical; settings: for solubility: aqueous buffer
Text: The variety of the biodegradation products of the [AB]n materials of this invention is limited, where this is due to the simple and defined molecular structures of the [AB]n materials with only one type of soft block A and only one type of hard block B for a particular [AB]n material. […] Degradation products from the hard block are lower molecular weight molecules such as the molecules shown in Examples 25 and 26 (not: molecules 26E, 26F, 26G).

[3] = system: 3T3 mouse fibroblasts; assay: MTT cytotoxicity assay; settings: cells treated with medium exposed to the material, relative to untreated medium

Row | Compound | solubility [2] [µg/mL] | also measured
1 | poly(hexyl carbonate-random-co-ε-caprolactone) bisurea [Example 32] |  | cell viability [1]: 60-116%
2 | Triton X-100 |  | cell viability [3]: 0%
3 | O=C(O)CCCCCNC(=O)NCCCCNC(=O)NCCCCCC(=O)O [Example 26B] |  | solubility in PBS [2]: > 1000 µg/mL

Now from value to compound, other results behind:

Row | solubility [2] [µg/mL] | Compound | also measured
4 | > 5000 | NCCCCCCNC(=O)NCCCCCCN [Example 25E, 1,3-bis-(6-aminohexyl)urea] | 
5 | > 5000 | NCCCCCNC(=O)CCCCCN [Example 25C, 6-amino-N-(5-aminopentyl)hexanamide] | 
6 | > 5000 | NCCCCNC(=O)CCCCC(=O)NCCCCN [Example 25D, N^1,N^6-bis(4-aminobutyl)adipamide] | 

From patent publication US10556994B2, “Strictly segmented thermoplastic elastomers as biodegradable biomaterials” (SyMO-Chem B.V., priority 2014, dated 2020)
